Experimental data reported in US8536216B2, “Compositions based on aminoacids” (Professional Dietetics S.R.L., priority 2000, dated 2013).
Read-outs that look alike come from different tables or passages of the source.

Columns and labels:
[1] = human, in vivo
[2] = Amino acids plasma modifications induced by acute ingestion of the mixture
[3] = system: athletes; test: Comparative study in athletes: bench press, squat Romano, maximal power on braked bicycle ergometer; assay type: in vivo, human
Text: The effects on energy balance of the an amino acids mixture according to the invention as above indicated were the subject of a comparative study with creatine, on a weight ratio (w/w), or with no treatment, on a large group of volunteers submitted to a rigid protocol of alimentation and training.

[4] = 15' after acute ingestion of the mixture according to the invention
[5] = 30' after acute ingestion of the mixture according to the invention
[6] = 60' after acute ingestion of the mixture according to the invention

| Compound | Amino acid plasma level ([1]; 15 min) | Amino acid plasma level ([1]; 30 min) | Amino acid plasma level ([1]; 60 min) | Amino acid plasma level [2, 4] | Amino acid plasma level [2, 5] | Amino acid plasma level [2, 6] | Watt/Kg max (maximal power productive performance on a braked bicycle ergometer) ([3]; after one month of treatment and training, mixture 24 g/d, creatine 25 g/d) [watt/kg max] | Performances over basal and no treatment group ([3]; one month treatment and training) |
| --- | --- | --- | --- | --- | --- | --- | --- | --- |
| CC[C@H](C)[C@H](N)C(=O)O [Isoleucine] | 156 ± 24 | 162 ± 31 | 147 ± 32 |  |  |  |  |  |
| N[C@@H](Cc1ccccc1)C(=O)O [Phenylalanine] | 56 ± 9 | 61 ± 10 | 55 ± 7 |  |  |  |  |  |
| C[C@@H](O)[C@H](N)C(=O)O [Threonine] | 121 ± 15 | 137 ± 21 | 120 ± 16 |  |  |  |  |  |
| N[C@@H](Cc1ccc(O)cc1)C(=O)O [Tyrosine] | 62 ± 9 | 65 ± 14 | 59 ± 7 |  |  |  |  |  |
| CC(C)[C@H](N)C(=O)O [Valine] | 256 ± 19 | 294 ± 32 | 249 ± 26 |  |  |  |  |  |
| CN(CC(=O)O)C(=N)N [creatine] |  |  |  |  |  |  | 9.8 ± 0.6 | significant improvements of performances |

More lines, main results first:

| Amino acid plasma level ([1]; 15 min) | Amino acid plasma level ([1]; 30 min) | Amino acid plasma level ([1]; 60 min) | Amino acid plasma level [2, 4] | Amino acid plasma level [2, 5] | Amino acid plasma level [2, 6] | Compound | Watt/Kg max (maximal power productive performance on a braked bicycle ergometer) ([3]; after one month of treatment and training, mixture 24 g/d, creatine 25 g/d) [watt/kg max] | Performances over basal and no treatment group ([3]; one month treatment and training) |
| --- | --- | --- | --- | --- | --- | --- | --- | --- |
| 85 ± 15 | 97 ± 13 | 82 ± 16 |  |  |  | N=C(N)NCCC[C@H](N)C(=O)O [Arginine] |  |  |
| 54 ± 6 | 61 ± 8 | 49 ± 7 |  |  |  | N[C@@H](CS)C(=O)O [Cysteine] |  |  |
|  |  |  | 563 ± 69 | 606 ± 32 | 502 ± 43 | N[C@@H](CCC(=O)O)C(=O)O [Glutamate] |  |  |
|  |  |  | 42 ± 6 | 44 ± 7 | 41 ± 5 | N[C@@H](CCC(=O)O)C(=O)O [Glutamic acid] |  |  |
| 68 ± 16 | 109 ± 19 | 71 ± 9 |  |  |  | CC(C)C[C@H](N)C(=O)O [Leucine] |  |  |
| 182 ± 17 | 194 ± 26 | 179 ± 18 |  |  |  | NCCCC[C@H](N)C(=O)O [Lysine] |  |  |
| 30 ± 6 | 32 ± 9 | 27 ± 4 |  |  |  | CSCC[C@H](N)C(=O)O [Methionine] |  |  |
